Experimental data published in BindingDB's records for doi:10.1021/jm010469k (Agouron Pharmaceuticals, 2002).

Key:
[1] = antirhinoviral activity against Human Rhinovirus Protease 3C (serotype 14)
[2] = antirhinoviral activity against Human Rhinovirus Protease 3C (serotype 10)
[3] = antirhinoviral activity against Human Rhinovirus Protease 3C (serotype 1A)
[4] = antirhinoviral activity against HRV Protease 3CP (serotype 14)
[5] = antirhinoviral activity against HRV Protease 3CP (serotype 1A)
[6] = antirhinoviral activity against HRV Protease 3CP (serotype 10)
[7] = antirhinoviral activity against HRV Protease 3CP (serotype 2)
[8] = antirhinoviral activity against HRV Protease 3CP (serotype 9)
[9] = antirhinoviral activity against HRV Protease 3CP (serotype 3)
[10] = antirhinoviral activity against HRV Protease 3CP (serotype 16)
[11] = antirhinoviral activity against HRV Protease 3CP (serotype 19)
[12] = antirhinoviral activity against HRV Protease 3CP (serotype 1A); remark: listed apart in the source
[13] = antirhinoviral activity against HRV Protease 3CP (serotype 11)
[14] = antirhinoviral activity against HRV Protease 3CP (serotype 78)
[15] = antirhinoviral activity against HRV Protease 3CP (serotype 39)
[16] = antirhinoviral activity against HRV Protease 3CP (serotype 23)
[17] = antirhinoviral activity against HRV Protease 3CP (serotype 25)
[18] = antirhinoviral activity against HRV Protease 3CP (serotype 10); remark: listed apart in the source
[19] = antirhinoviral activity against HRV Protease 3CP (serotype 13)
[20] = antirhinoviral activity against HRV Protease 3CP (serotype Hanks)

SMILES: CCOC(=O)/C=C/[C@H](CCC(N)=O)NC(=O)[C@H](Cc1ccccc1)n1cccc(NC(=O)OCc2ccccc2)c1=O [(E)-(S)-4-[(S)-2-(3-Benzyloxycarbonylamino-2-oxo-2H-pyridin-1-yl)-3-phenyl-propionylamino]-6-carbamoyl-hex-2-enoic acid ethyl ester]
- EC50 [1]: 33 nM
- EC50 [2]: 372 nM
- EC50 [3]: 1250 nM

SMILES: CCOC(=O)/C=C/[C@H](C[C@@H]1CCNC1=O)NC(=O)[C@H](Cc1ccccc1)n1cccc(NC(=O)OCc2ccccc2)c1=O [4-[2-(3-Benzyloxycarbonylamino-2-oxo-2H-pyridin-1-yl)-3-phenyl-propionylamino]-5-(2-oxo-pyrrolidin-3-yl)-pent-2-enoic acid ethyl ester]
- EC50 [4]: 3 nM

SMILES: CCOC(=O)/C=C/[C@H](CCC(N)=O)NC(=O)[C@H](Cc1ccc(F)cc1)n1cccc(NC(=O)OCc2ccccc2)c1=O [4-[2-(3-Benzyloxycarbonylamino-2-oxo-2H-pyridin-1-yl)-3-(4-fluoro-phenyl)-propionylamino]-6-carbamoyl-hex-2-enoic acid ethyl ester]
- EC50 [5]: 607 nM
- EC50 [6]: 111 nM

SMILES: CCOC(=O)/C=C/[C@H](CCC(N)=O)NC(=O)[C@H](Cc1ccccc1)n1cccc(NC(=O)C2SCCS2)c1=O [6-Carbamoyl-4-(2-{3-[([1,3]dithiolane-2-carbonyl)-amino]-2-oxo-2H-pyridin-1-yl}-3-phenyl-propionylamino)-hex-2-enoic acid ethyl ester]
- EC50 [5]: 1180 nM
- EC50 [6]: 1410 nM

SMILES: Cc1cc(C(=O)Nc2cccn([C@@H](Cc3ccc(F)c(F)c3)C(=O)N[C@H](/C=C/C(=O)OC(C)C)C[C@@H]3CCNC3=O)c2=O)no1 [(1S,5S)-4-((S)-3-(3,4-Difluoro-phenyl)-2-{3-[(5-methyl-isoxazole-3-carbonyl)-amino]-2-oxo-2H-pyridin-1-yl}-propionylamino)-5-(2-oxo-pyrrolidin-3-yl)-pent-2-enoic acid isopropyl ester]
- EC50 [7]: 48 nM
- EC50 [8]: 109 nM
- EC50 [9]: 33 nM
- EC50 [10]: 36 nM
- EC50 [11]: 9 nM
- EC50 [12]: 132 nM
- EC50 [13]: 3 nM
- EC50 [14]: 12 nM
- EC50 [4]: 3 nM
- EC50 [15]: 44 nM
- EC50 [16]: 10 nM
- EC50 [17]: 100 nM
- EC50 [18]: 85 nM
- EC50 [19]: 44 nM
- EC50 [20]: 3 nM

SMILES: CCOC(=O)/C=C/[C@H](CCC(N)=O)NC(=O)[C@H](Cc1ccc(F)c(F)c1)n1cccc(NC(=O)OCc2ccccc2)c1=O [4-[2-(3-Benzyloxycarbonylamino-2-oxo-2H-pyridin-1-yl)-3-(3,4-difluoro-phenyl)-propionylamino]-6-carbamoyl-hex-2-enoic acid ethyl ester]
- EC50 [5]: 513 nM
- EC50 [6]: 32 nM

SMILES: CCOC(=O)/C=C/[C@H](C[C@@H]1CCNC1=O)NC(=O)[C@H](Cc1ccc(F)cc1)n1cccc(NC(=O)c2cc(C)on2)c1=O [4-(3-(4-Fluoro-phenyl)-2-{3-[(5-methyl-isoxazole-3-carbonyl)-amino]-2-oxo-2H-pyridin-1-yl}-propionylamino)-5-(2-oxo-pyrrolidin-3-yl)-pent-2-enoic acid ethyl ester]
- EC50 [5]: 15 nM
- EC50 [6]: 4 nM

SMILES: CCOC(=O)/C=C/[C@H](C[C@@H]1CCNC1=O)NC(=O)[C@H](Cc1ccc(F)c(F)c1)n1cccc(NC(=O)c2cc(C)on2)c1=O [(1S,5S)-4-((S)-3-(3,4-Difluoro-phenyl)-2-{3-[(5-methyl-isoxazole-3-carbonyl)-amino]-2-oxo-2H-pyridin-1-yl}-propionylamino)-5-(2-oxo-pyrrolidin-3-yl)-pent-2-enoic acid ethyl ester]
- EC50 [5]: 6 nM
- EC50 [6]: 5 nM
